Test systems include SK-MEL-2 melanoma; CAKI-1 renal; HOP-92 NSCLC; NCI-H226 lung; UACC-257 melanoma; NCI-H23 lung; HOP-62 NSCLC; OVCAR-8 ovarian; SF-295 CNS.
Common to all, as to assay: inhibition of tumour cell growth, NCI panel, 48 h

TGI and GI50 data for 13 compounds are collected here from PubChem BioAssay (NCI).

“And” between values parts separate entries of the source, which are not always exact repeats. Equal entries are not always repeated.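 Each compound was tested at five concentrations against cells in 96-well plates for 48 hours. GI50: concentration for 50% inhibition of growth. Definition used: TGI = concentration required for complete inhibition of growth.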

`CCCCCCCCCCCCCCCC(=O)N[C@H]1CCc2cc(OC)c(OC)c(OC)c2-c2ccc(SC)c(=O)cc21`: the TGI in the experiment on SK-MEL-2 melanoma is 4.46 µM; with CAKI-1 renal, 80 µM and 21.8 µM; in the experiment on HOP-92 NSCLC, 11.3 µM and 5.32 µM; with NCI-H226 lung, 0.656 µM and 5.65 µM; in the experiment on UACC-257 melanoma, 13.1 µM and 26.4 µM; with NCI-H23 lung it was 1.96 µM and 3.85 µM. For the same compound, the TGI in the experiment on HOP-62 NSCLC was 62.6 µM and 18.2 µM; in the experiment with OVCAR-8 ovarian, 8.92 µM and 12.6 µM; in the experiment on SF-295 CNS it was 8.89 µM and 5.44 µM. For the same compound, the GI50 in the experiment with CAKI-1 renal was 6.7 µM; with HOP-92 NSCLC it was 0.564 µM; in the experiment with NCI-H226 lung, 2.63 µM; in the experiment with UACC-257 melanoma, 0.699 µM; in the experiment on NCI-H23 lung, 1.25 µM; in the experiment on HOP-62 NSCLC it was 2.13 µM. For the same compound, the GI50 in the experiment with OVCAR-8 ovarian was 3.31 µM; in the experiment with SF-295 CNS, 1.12 µM.
As to `O=C1CC2Sc3ccccc3N=C2N1c1ccc(Cl)cc1Cl` (stereo unspecified), the TGI with SK-MEL-2 melanoma, with HOP-92 NSCLC, in the experiment with NCI-H226 lung, in the experiment on UACC-257 melanoma, with NCI-H23 lung and in the experiment on HOP-62 NSCLC was greater than 100 µM throughout. Moreover, the TGI in the experiment with OVCAR-8 ovarian and in the experiment on SF-295 CNS was greater than 100 µM in each case.
In the case of `COc1cc2cc3c4c(cc(OC)c(OC)c4c2cc1OC)CCN3C(=O)OCCBr`, the TGI is greater than 100 µM in the experiment on SK-MEL-2 melanoma; greater than 100 µM with CAKI-1 renal; greater than 100 µM in the experiment on HOP-92 NSCLC; 2.42 µM in the experiment on NCI-H226 lung; greater than 100 µM with UACC-257 melanoma; greater than 100 µM in the experiment on NCI-H23 lung. The TGI in the experiment on OVCAR-8 ovarian and in the experiment with SF-295 CNS was greater than 100 µM throughout.
For `CCN1CC2(C)CC[C@@H](OC)C34[C@@H]2[C@H](OC(C)=O)C2(OCO[C@@]25C[C@H](OC)C2C[C@]3(O)[C@@H]5[C@H]2O)[C@H]14`, the TGI with SK-MEL-2 melanoma, in the experiment with CAKI-1 renal, with HOP-92 NSCLC, in the experiment on NCI-H226 lung, in the experiment on UACC-257 melanoma and in the experiment with NCI-H23 lung was greater than 100 µM in each case. The TGI in the experiment on HOP-62 NSCLC, in the experiment with OVCAR-8 ovarian and with SF-295 CNS was greater than 100 µM each time.
Consider `Clc1ccccc1C1=NN(c2ccccc2)C2c3cc(Br)ccc3OCC12` (stereo unspecified), for which the TGI with SK-MEL-2 melanoma, in the experiment with HOP-92 NSCLC, in the experiment on UACC-257 melanoma, in the experiment with NCI-H23 lung, in the experiment on HOP-62 NSCLC and in the experiment with OVCAR-8 ovarian was greater than 100 µM throughout. The TGI with SF-295 CNS is greater than 100 µM.
`CC(C)=C1CCC(CN2CCCC2)C1=O` (stereo unspecified): the TGI in the experiment on SK-MEL-2 melanoma was 77.2 µM; in the experiment on CAKI-1 renal it was 28.9 µM; in the experiment on HOP-92 NSCLC, 58.5 µM; in the experiment on NCI-H226 lung, greater than 100 µM; in the experiment with UACC-257 melanoma, 66.7 µM; in the experiment with NCI-H23 lung, greater than 100 µM. Moreover, the TGI with HOP-62 NSCLC, in the experiment with OVCAR-8 ovarian and in the experiment with SF-295 CNS was greater than 100 µM throughout.
Turning to `Cc1cccc(N2C(=O)/C(=C/c3ccc(N(CCC#N)CCC#N)cc3C)N=C2c2cc([N+](=O)[O-])ccc2Cl)c1`, the TGI with SK-MEL-2 melanoma, in the experiment on CAKI-1 renal, in the experiment on HOP-92 NSCLC, in the experiment on NCI-H226 lung, in the experiment with UACC-257 melanoma and in the experiment with NCI-H23 lung was greater than 100 µM each time. Besides, the TGI with HOP-62 NSCLC, in the experiment on OVCAR-8 ovarian and in the experiment on SF-295 CNS was greater than 100 µM each time.
On to `O=C1/C(=C/c2ccccc2)CN(C(=O)Oc2ccc([N+](=O)[O-])cc2)C/C1=C\c1ccccc1`, for which the TGI in the experiment on SK-MEL-2 melanoma is 29.2 µM; in the experiment on UACC-257 melanoma, 8.79 µM; with OVCAR-8 ovarian it was 3.74 µM and 4.18 µM; in the experiment on SF-295 CNS, 7.93 µM and 4.98 µM. The GI50 in the experiment with UACC-257 melanoma was 6.29 µM; in the experiment with NCI-H23 lung, 9.79 µM; in the experiment with OVCAR-8 ovarian, 1.86 µM; in the experiment on SF-295 CNS it was 2.07 µM.
For `CC[C@@]1(O)C(=O)OCc2c1cc1n(c2=O)Cc2cc3c(NC(C)=O)c(O)ccc3nc2-1`, the GI50 in the experiment with SK-MEL-2 melanoma is 17.8 µM; in the experiment with CAKI-1 renal, 0.468 µM; in the experiment on HOP-92 NSCLC it was 7.76 µM; with NCI-H226 lung it was 2.98 µM; in the experiment on UACC-257 melanoma, 10.8 µM; in the experiment on NCI-H23 lung, 0.762 µM. Further, the GI50 was 0.214 µM with HOP-62 NSCLC, 1.54 µM in the experiment on OVCAR-8 ovarian and 0.721 µM with SF-295 CNS. Also, the TGI in the experiment with SK-MEL-2 melanoma is 53.5 µM; with CAKI-1 renal it was 13.7 µM; in the experiment with HOP-92 NSCLC it was 51.9 µM; with NCI-H226 lung, greater than 20.3 µM; in the experiment with UACC-257 melanoma it was greater than 86.6 µM; in the experiment on NCI-H23 lung, 9.15 µM. Moreover, the TGI in the experiment with HOP-62 NSCLC was 0.631 µM; in the experiment on OVCAR-8 ovarian it was greater than 47.7 µM; in the experiment on SF-295 CNS, greater than 32.1 µM.
In the case of `COc1ccccc1NC(=O)C(=O)C1C(=O)Nc2ccccc2S1=O` (stereo unspecified), the TGI with SK-MEL-2 melanoma, with CAKI-1 renal, in the experiment with NCI-H226 lung, with UACC-257 melanoma, with NCI-H23 lung and in the experiment with HOP-62 NSCLC was greater than 100 µM in each case. The TGI in the experiment on OVCAR-8 ovarian and with SF-295 CNS was greater than 100 µM throughout.
Turning to `C/C(=N/Nc1ccc([N+](=O)[O-])cc1[N+](=O)[O-])C(CC(C(=O)Nc1ccccc1C)/C(C)=N\Nc1ccc([N+](=O)[O-])cc1[N+](=O)[O-])C(=O)Nc1ccccc1C` (stereo unspecified), the TGI came to 28.2 µM in the experiment with SK-MEL-2 melanoma; 30 µM in the experiment on CAKI-1 renal; 15.5 µM in the experiment on HOP-92 NSCLC; 19.3 µM with NCI-H226 lung; 43.9 µM in the experiment on UACC-257 melanoma; 25.5 µM in the experiment with NCI-H23 lung. In addition, the TGI with HOP-62 NSCLC is 30.6 µM; in the experiment on OVCAR-8 ovarian, 14 µM; in the experiment with SF-295 CNS, 33.9 µM.
Consider `CCOC(=N)CC(=O)NC(C)c1ccccc1` (stereo unspecified), for which the TGI in the experiment with SK-MEL-2 melanoma, in the experiment on CAKI-1 renal, in the experiment on NCI-H226 lung, in the experiment with UACC-257 melanoma, with NCI-H23 lung and with HOP-62 NSCLC was greater than 100 µM each time. The TGI with OVCAR-8 ovarian and in the experiment with SF-295 CNS was greater than 100 µM in each case.
Consider `C/C(=N\NC(=S)N1CCC(C2CCN(C(=S)N/N=C(\C)c3ccccn3)CC2)CC1)c1ccccn1`, for which the TGI in the experiment on CAKI-1 renal, in the experiment on HOP-92 NSCLC, in the experiment on NCI-H226 lung, in the experiment with UACC-257 melanoma, in the experiment on NCI-H23 lung and with HOP-62 NSCLC was greater than 100 µM each time. In addition, the TGI in the experiment with OVCAR-8 ovarian and in the experiment on SF-295 CNS was greater than 100 µM in each case.
